US20070212408A1, “Stable Pharmaceutical Composition Containing Benzimidazole Derivatives and Method of Manufacturing the Same” (priority 2004, published 2007)

How the values were obtained:
[1] = Storage stability test of inclusion complexes containing lansoprazole (Test Example 3), HPLC content; assay type: physicochemical; conditions: 60° C., 75% RH, relative to initial content
[2] = Storage stability test of inclusion complexes containing lansoprazole (Test Example 1), HPLC content; assay type: physicochemical; conditions: 60° C., 75% RH

## Cc1c(OCC(F)(F)F)ccnc1C[S+]([O-])c1nc2ccccc2[nH]1 (stereo not drawn) [lansoprazole]
[1]; 1 wk
  Content after 1 wk (%): 96.62%
[1]; 2 wk
  Content after 2 wk (%): 76.88%
[2]; 1 wk, relative to initial content, HPLC
  Content after 1 wk (%): 96.62%
[2]; 2 wk, relative to initial content, HPLC
  Content after 2 wk (%): 76.88%
[2]; 4 wk
  Color Change after 4 wk: Dark brown
[2]; 4 wk, relative to initial content, HPLC
  Content after 4 wk (%): Not detected
